According to US11807644B2 (PMV Pharmaceuticals, Inc., priority 2020, dated 2023):

What follows are compounds tested against T1, recombinant His-tag Y220C p53 DBD protein (Homo sapiens, UniProt P04637, Y220C) (assay: In vitro DNA binding activity assay (TR-FRET): binding of His-tag Y220C p53 DBD to biotin-labeled consensus DNA). Conditions: SC150 = concentration to increase DNA binding by […], His-tag Y220C p53 DBD, biotin-labeled consensus DNA.
T1 construct: recombinant His-tag Y220C p53 DBD protein (amino acids #˜94-312)
Type: biochemical

Y220C SC150 (μM) | SMILES
* (* = 0 μM ≤ SC150 < 0.1 μM) | CC(C)(C)n1ccc(C(=O)NCc2nc(-c3cc4c(N[C@@H]5CCNC[C@@H]5F)cccc4n3CC(F)(F)F)no2)c1 [Compound 502B, 1-tert-butyl-N-{[3-(4-{[(3S,4R)-3-fluoropiperidin-4-yl]amino}-1-(2,2,2-trifluoroethyl)-1H-indol-2-yl)-1,2,4-oxadiazol-5-yl]methyl}-1H-pyrrole-3-carboxamide]
* (* = 0 μM ≤ SC150 < 0.1 μM) | COCC1(c2ccc(C(=O)NCc3nc(-c4cc5c(N[C@@H]6CCNC[C@@H]6F)cccc5n4CC(F)(F)F)no3)s2)CC1 [Compound 503B, N-{[3-(4-{[(3S,4R)-3-fluoropiperidin-4-yl]amino}-1-(2,2,2-trifluoroethyl)-1H-indol-2-yl)-1,2,4-oxadiazol-5-yl]methyl)-5-[1-(methoxymethyl)cyclopropyl]thiophene-2-carboxamide]
* (* = 0 μM ≤ SC150 < 0.1 μM) | COCC1(n2ccc(C(=O)NCc3nc(-c4cc5c(N[C@@H]6CCN(C)C[C@@H]6C)cccc5n4CC(F)(F)F)no3)c2)CC1 [Compound 504B, N-{[3-(4-{[(3S,4R)-1,3-dimethylpiperidin-4-yl]amino}-1-(2,2,2-trifluoroethyl)-1H-indol-2-yl)-1,2,4-oxadiazol-5-yl]methyl}-1-[1-(methoxymethyl)cyclopropyl]-1H-pyrrole-3-carboxamide]
* (* = 0 μM ≤ SC150 < 0.1 μM) | COCC1(n2ccc(C(=O)NCc3nc(-c4cc5c(N[C@H]6CCN(C)C[C@H]6C)cccc5n4CC(F)(F)F)no3)c2)CC1 [Compound 505B, N-{[3-(4-{[(3R,4S)-1,3-dimethylpiperidin-4-yl]amino}-1-(2,2,2-trifluoroethyl)-1H-indol-2-yl)-1,2,4-oxadiazol-5-yl]methyl}-1-[1-(methoxymethyl)cyclopropyl]-1H-pyrrole-3-carboxamide]
* (* = 0 μM ≤ SC150 < 0.1 μM) | COCC1(c2cc(C(=O)NCc3nc(-c4cc5c(N[C@@H]6CCOC[C@@H]6F)cccc5n4CC(F)(F)F)no3)cs2)CC1 [Compound 507B, N-{[3-(4-{[(3R,4R)-3-fluorooxan-4-yl]amino}-1-(2,2,2-trifluoroethyl)-1H-indol-2-yl)-1,2,4-oxadiazol-5-yl]methyl}-5-[1-(methoxymethyl)cyclopropyl]thiophene-3-carboxamide]
* (* = 0 μM ≤ SC150 < 0.1 μM) | COCC(C)(C)c1cc(C(=O)NCc2nc(-c3cc4c(N[C@@H]5CCOC[C@@H]5F)cccc4n3CC(F)(F)F)no2)cs1 [Compound 508B, N-{[3-(4-{[(3R,4R)-3-fluorooxan-4-yl]amino}-1-(2,2,2-trifluoroethyl)-1H-indol-2-yl)-1,2,4-oxadiazol-5-yl]methyl}-5-(1-methoxy-2-methylpropan-2-yl)thiophene-3-carboxamide]
* (* = 0 μM ≤ SC150 < 0.1 μM) | C[C@H]1CN(C)CC[C@H]1Nc1cccc2c1cc(-c1noc(CNC(=O)c3ccc(C(C)(C)O)s3)n1)n2CC(F)(F)F [Compound 509B, N-{[3-(4-{[(3S,4R)-1,3-dimethylpiperidin-4-yl]amino}-1-(2,2,2-trifluoroethyl)-1H-indol-2-yl)-1,2,4-oxadiazol-5-yl]methyl}-5-(2-hydroxypropan-2-yl)thiophene-2-carboxamide]
* (* = 0 μM ≤ SC150 < 0.1 μM) | C[C@H]1CN(C)CC[C@H]1Nc1cccc2c1cc(-c1noc(CNC(=O)c3cnn(C(C)(C)C)c3)n1)n2CC(F)(F)F [Compound 510B, 1-tert-butyl-N-{[3-(4-{[(3S,4R)-1,3-dimethylpiperidin-4-yl]amino}-1-(2,2,2-trifluoroethyl)-1H-indol-2-yl)-1,2,4-oxadiazol-5-yl]methyl}-1H-pyrazole-4-carboxamide]
* (* = 0 μM ≤ SC150 < 0.1 μM) | C[C@@H]1CN(C)CC[C@@H]1Nc1cccc2c1cc(-c1noc(CNC(=O)c3cnn(C(C)(C)C)c3)n1)n2CC(F)(F)F [Compound 511B, 1-tert-butyl-N-{[3-(4-{[(3R,4S)-1,3-dimethylpiperidin-4-yl]amino}-1-(2,2,2-trifluoroethyl)-1H-indol-2-yl)-1,2,4-oxadiazol-5-yl]methyl}-1H-pyrazole-4-carboxamide]
* (* = 0 μM ≤ SC150 < 0.1 μM) | CC(C)(C)n1ccc(C(=O)NCc2nc(-c3cc4c(N[C@@H]5CCOC[C@H]5F)cccc4n3CC(F)(F)F)no2)c1 [Compound 512B, 1-tert-butyl-N-{[3-(4-{[(3S,4R)-3-fluorooxan-4-yl]amino}-1-(2,2,2-trifluoroethyl)-1H-indol-2-yl)-1,2,4-oxadiazol-5-yl]methyl}-1H-pyrrole-3-carboxamide]
* (* = 0 μM ≤ SC150 < 0.1 μM) | C[C@@H]1CN(C)CC[C@@H]1Nc1cccc2c1cc(-c1noc(CNC(=O)c3ccn(C(C)(C)C)c3)n1)n2CC(F)(F)F [Compound 513B, 1-tert-butyl-N-{[3-(4-{[(3R,4S)-1,3-dimethylpiperidin-4-yl]amino}-1-(2,2,2-trifluoroethyl)-1H-indol-2-yl)-1,2,4-oxadiazol-5-yl]methyl}-1H-pyrrole-3-carboxamide]
* (* = 0 μM ≤ SC150 < 0.1 μM) | C[C@H]1CN(C)CC[C@H]1Nc1cccc2c1cc(-c1noc(CNC(=O)c3ccn(C(C)(C)C)c3)n1)n2CC(F)(F)F [Compound 514B, 1-tert-butyl-N-{[3-(4-{[(3S,4R)-1,3-dimethylpiperidin-4-yl]amino}-1-(2,2,2-trifluoroethyl)-1H-indol-2-yl)-1,2,4-oxadiazol-5-yl]methyl}-1H-pyrrole-3-carboxamide]
* (* = 0 μM ≤ SC150 < 0.1 μM) | COC[C@@H]1CCCN1c1nc(C(=O)NCc2nc(-c3cc4c(N[C@@H]5CCN(C)C[C@@H]5F)cccc4n3CC(F)(F)F)no2)cs1 [Compound 519B, N-{[3-(4-{[(3S,4R)-3-fluoro-1-methylpiperidin-4-yl]amino}-1-(2,2,2-trifluoroethyl)-1H-indol-2-yl)-1,2,4-oxadiazol-5-yl]methyl}-2-[(2S)-2-(methoxymethyl)pyrrolidin-1-yl]-1,3-thiazole-4-carboxamide]
* (* = 0 μM ≤ SC150 < 0.1 μM) | COC[C@H]1CCCN1c1nc(C(=O)NCc2nc(-c3cc4c(N[C@@H]5CCN(C)C[C@@H]5F)cccc4n3CC(F)(F)F)no2)cs1 [Compound 520B, N-{[3-(4-{[(3S,4R)-3-fluoro-1-methylpiperidin-4-yl]amino}-1-(2,2,2-trifluoroethyl)-1H-indol-2-yl)-1,2,4-oxadiazol-5-yl]methyl}-2-[(2R)-2-(methoxymethyl)pyrrolidin-1-yl]-1,3-thiazole-4-carboxamide]
* (* = 0 μM ≤ SC150 < 0.1 μM) | CCc1cc(C(=O)NCc2nc(-c3cc4c(N[C@@H]5CCN(C)C[C@@H]5F)cccc4n3CC(F)(F)F)no2)on1 [Compound 521B, 3-ethyl-N-{[3-(4-{[(3S,4R)-3-fluoro-1-methylpiperidin-4-yl]amino}-1-(2,2,2-trifluoroethyl)-1H-indol-2-yl)-1,2,4-oxadiazol-5-yl]methyl}-1,2-oxazole-5-carboxamide]
* (* = 0 μM ≤ SC150 < 0.1 μM) | CO[C@@H]1CCN(c2nc(C(=O)NCc3nc(-c4cc5c(N[C@@H]6CCN(C)C[C@@H]6F)cccc5n4CC(F)(F)F)no3)cs2)C1 [Compound 522B, N-{[3-(4-{[(3S,4R)-3-fluoro-1-methylpiperidin-4-yl]amino}-1-(2,2,2-trifluoroethyl)-1H-indol-2-yl)-1,2,4-oxadiazol-5-yl]methyl}-2-[(3R)-3-methoxypyrrolidin-1-yl]-1,3-thiazole-4-carboxamide]
* (* = 0 μM ≤ SC150 < 0.1 μM) | CO[C@H]1CCN(c2nc(C(=O)NCc3nc(-c4cc5c(N[C@@H]6CCN(C)C[C@@H]6F)cccc5n4CC(F)(F)F)no3)cs2)C1 [Compound 523B, N-{[3-(4-{[(3S,4R)-3-fluoro-1-methylpiperidin-4-yl]amino}-1-(2,2,2-trifluoroethyl)-1H-indol-2-yl)-1,2,4-oxadiazol-5-yl]methyl}-2-[(3S)-3-methoxypyrrolidin-1-yl]-1,3-thiazole-4-carboxamide]
* (* = 0 μM ≤ SC150 < 0.1 μM) | CN1CC[C@@H](Nc2cccc3c2cc(-c2noc(CNC(=O)c4ccc(C(C)(C)C)[nH]4)n2)n3CC(F)(F)F)[C@@H](F)C1 [Compound 524B, 5-tert-butyl-N-{[3-(4-{[(3S,4R)-3-fluoro-1-methylpiperidin-4-yl]amino}-1-(2,2,2-trifluoroethyl)-1H-indol-2-yl)-1,2,4-oxadiazol-5-yl]methyl}-1H-pyrrole-2-carboxamide]
* (* = 0 μM ≤ SC150 < 0.1 μM) | CC(C)c1cc(C(=O)NCc2nc(-c3cc4c(N[C@@H]5CCN(C)C[C@@H]5F)cccc4n3CC(F)(F)F)no2)co1 [Compound 526B, N-{[3-(4-{[(3S,4R)-3-fluoro-1-methylpiperidin-4-yl]amino}-1-(2,2,2-trifluoroethyl)-1H-indol-2-yl)-1,2,4-oxadiazol-5-yl]methyl}-5-(propan-2-yl)furan-3-carboxamide]
* (* = 0 μM ≤ SC150 < 0.1 μM) | CN1CC[C@@H](Nc2cccc3c2cc(-c2noc(CNC(=O)c4csc(N5CC6(COC6)C5)n4)n2)n3CC(F)(F)F)[C@@H](F)C1 [Compound 527B, N-{[3-(4-{[(3S,4R)-3-fluoro-1-methylpiperidin-4-yl]amino}-1-(2,2,2-trifluoroethyl)-1H-indol-2-yl)-1,2,4-oxadiazol-5-yl]methyl}-2-{2-oxa-6-azaspiro[3.3]heptan-6-yl}-1,3-thiazole-4-carboxamide]
* (* = 0 μM ≤ SC150 < 0.1 μM) | CN1CC[C@@H](Nc2cccc3c2cc(-c2noc(CNC(=O)c4csc(N(C)C(C)(C)C)n4)n2)n3CC(F)(F)F)[C@@H](F)C1 [Compound 528B, 2-[tert-butyl(methyl)amino]-N-{[3-(4-{[(3S,4R)-3-fluoro-1-methylpiperidin-4-yl]amino}-1-(2,2,2-trifluoroethyl)-1H-indol-2-yl)-1,2,4-oxadiazol-5-yl]methyl}-1,3-thiazole-4-carboxamide]

SMILES | Y220C SC150 (μM)
CN1CC[C@@H](Nc2cccc3c2cc(-c2noc(CNC(=O)c4csc(N5CC6CC(C5)O6)n4)n2)n3CC(F)(F)F)[C@@H](F)C1 [Compound 525B] | ** (** = 0.1 μM ≤ SC150 < 0.5 μM)
